Results published in ChEMBL document CHEMBL1201862, “PubChem BioAssay data set” (2004).
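Protocol summary: plate cells (96-well), add compound at 5 concentrations, incubate 48 h, interpolate endpoints linearly. At the GI50, growth is halved.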 Activity calls are given as the source filed them. Rule as the data show it: active = GI50 up to about 1.1 µM and inactive = higher.

Assays:
Assay in all cases: NCI-60 cell line screen, 48 h
[1] = system: SK-MEL-5
[2] = system: SK-MEL-2
[3] = system: SF-268
[4] = system: OVCAR-3
[5] = system: KM-20L2
[6] = system: A498
[7] = system: UACC-62
[8] = system: NCI-H226
[9] = system: COLO 205
[10] = system: LOX IMVI
[11] = system: 786-0
[12] = system: MOLT-4
[13] = system: OVCAR-8
[14] = system: ACHN
[15] = system: OVCAR-5
[16] = system: SN12C
[17] = system: HCT-15
[18] = system: SF-295
[19] = system: Malme-3M
[20] = system: RXF 393
[21] = system: U-251
[22] = system: DMS-114
[23] = system: HOP-62
[24] = system: NCI-H23
[25] = system: SR
[26] = system: SK-OV-3
[27] = system: HT-29
[28] = system: SNB-19
[29] = system: TK-10
[30] = system: K562
[31] = system: HOP-92
[32] = system: SNB-78
[33] = system: EKVX
[34] = system: HOP-18
[35] = system: M19-MEL
[36] = system: CCRF-CEM
[37] = system: RXF 631
[38] = system: M14
[39] = system: NCI-H460
[40] = system: LXFL 529
[41] = system: DLD-1
[42] = system: SW-620
[43] = system: DMS-273
[44] = system: SNB-75
[45] = system: OVCAR-4
[46] = system: HCT-116
[47] = system: CAKI-1
[48] = system: UO-31
[49] = system: A549
[50] = system: HL-60
[51] = system: UACC-257
[52] = system: HCC 2998
[53] = system: SF-539
[54] = system: KM12
[55] = system: RPMI-8226
[56] = system: IGROV-1
[57] = system: SK-MEL-28
[58] = system: NCI-H522

Cc1ccc(S(=O)(=O)N/N=c2\c(C)c(C3=NS(=O)(=O)c4cc(S(N)(=O)=O)c(Cl)cc4N3)oc3c(Cl)cc(Cl)cc23)cc1
GI50 [1]: > 100 µM (inactive)
GI50 [2]: > 100 µM (inactive)
GI50 [3]: > 100 µM (inactive)
GI50 [4]: > 100 µM (inactive)
GI50 [5]: > 100 µM (inactive)
GI50 [6]: > 100 µM (inactive)
GI50 [7]: > 100 µM (inactive)
GI50 [8]: > 100 µM (inactive)
GI50 [9]: 22.3 µM (inactive)
GI50 [10]: 86.5 µM (inactive)
GI50 [11]: > 100 µM (inactive)
GI50 [12]: > 100 µM (inactive)
GI50 [13]: > 100 µM (inactive)
GI50 [14]: > 100 µM (inactive)
GI50 [15]: > 100 µM (inactive)
GI50 [16]: > 100 µM (inactive)
GI50 [17]: 39.4 µM
GI50 [18]: > 100 µM (inactive)
GI50 [19]: > 100 µM (inactive)
GI50 [20]: 59.7 µM (inactive)
GI50 [21]: 23.5 µM (inactive)
GI50 [22]: 26.9 µM (inactive)
GI50 [23]: > 100 µM (inactive)
GI50 [24]: > 100 µM (inactive)
GI50 [25]: > 100 µM (inactive)
GI50 [26]: > 100 µM (inactive)
GI50 [27]: 49.9 µM (inactive)
GI50 [28]: > 100 µM (inactive)
GI50 [29]: > 100 µM (inactive)
GI50 [30]: 61.1 µM (inactive)
GI50 [31]: 27.7 µM (inactive)
GI50 [32]: > 100 µM (inactive)
GI50 [33]: > 100 µM (inactive)
GI50 [34]: 45.3 µM (inactive)
GI50 [35]: > 100 µM (inactive)
GI50 [36]: 32.2 µM (inactive)
GI50 [37]: 79.1 µM (inactive)
GI50 [38]: > 100 µM (inactive)
GI50 [39]: 60.7 µM (inactive)
GI50 [40]: > 100 µM (inactive)
GI50 [41]: > 100 µM (inactive)
GI50 [42]: 6.87 µM (inactive)
GI50 [43]: 27 µM (inactive)
GI50 [44]: > 100 µM (inactive)
GI50 [45]: > 100 µM (inactive)
GI50 [46]: 65.5 µM (inactive)
GI50 [47]: > 100 µM (inactive)
GI50 [48]: > 100 µM (inactive)
GI50 [49]: > 100 µM (inactive)
GI50 [50]: > 100 µM (inactive)
GI50 [51]: > 100 µM (inactive)
GI50 [52]: > 100 µM (inactive)
GI50 [53]: > 100 µM (inactive)
GI50 [54]: > 100 µM (inactive)
GI50 [55]: 36.9 µM (inactive)
GI50 [56]: > 100 µM (inactive)
GI50 [57]: > 100 µM (inactive)

CCOC(=O)C1=C(C)C2C3C(=O)OC(=O)C3C1(C)C1C(=O)OC(=O)C21 (centres undefined)
GI50 [1]: > 100 µM (inactive)
GI50 [2]: > 100 µM (inactive)
GI50 [3]: > 100 µM (inactive)
GI50 [4]: > 100 µM (inactive)
GI50 [5]: > 100 µM (inactive)
GI50 [6]: > 100 µM (inactive)
GI50 [7]: > 100 µM (inactive)
GI50 [8]: > 100 µM (inactive)
GI50 [9]: > 100 µM (inactive)
GI50 [10]: > 100 µM (inactive)
GI50 [11]: > 100 µM (inactive)
GI50 [12]: > 100 µM (inactive)
GI50 [13]: > 100 µM (inactive)
GI50 [14]: > 100 µM (inactive)
GI50 [16]: > 100 µM (inactive)
GI50 [17]: > 100 µM
GI50 [18]: > 100 µM (inactive)
GI50 [19]: > 100 µM (inactive)
GI50 [20]: > 100 µM (inactive)
GI50 [21]: > 100 µM (inactive)
GI50 [22]: > 100 µM (inactive)
GI50 [23]: > 100 µM (inactive)
GI50 [24]: > 100 µM (inactive)
GI50 [26]: > 100 µM (inactive)
GI50 [27]: > 100 µM (inactive)
GI50 [28]: > 100 µM (inactive)
GI50 [29]: > 100 µM (inactive)
GI50 [30]: > 100 µM (inactive)
GI50 [31]: > 100 µM (inactive)
GI50 [32]: > 100 µM (inactive)
GI50 [33]: > 100 µM (inactive)
GI50 [35]: > 100 µM (inactive)
GI50 [36]: > 100 µM (inactive)
GI50 [37]: > 100 µM (inactive)
GI50 [38]: > 100 µM (inactive)
GI50 [39]: > 100 µM (inactive)
GI50 [40]: > 100 µM (inactive)
GI50 [41]: > 100 µM (inactive)
GI50 [42]: > 100 µM (inactive)
GI50 [43]: > 100 µM (inactive)
GI50 [44]: > 100 µM (inactive)
GI50 [45]: > 100 µM (inactive)
GI50 [46]: > 100 µM (inactive)
GI50 [48]: > 100 µM (inactive)
GI50 [49]: > 100 µM (inactive)
GI50 [50]: > 100 µM (inactive)
GI50 [51]: > 100 µM (inactive)
GI50 [52]: > 100 µM (inactive)
GI50 [53]: > 100 µM (inactive)
GI50 [54]: > 100 µM (inactive)
GI50 [55]: > 100 µM (inactive)
GI50 [56]: > 100 µM (inactive)
GI50 [57]: > 100 µM (inactive)

O=C(N/C(=C\c1ccc([N+](=O)[O-])cc1)c1nc2ccccc2[nH]1)c1ccccc1
GI50 [1]: 86.9 µM (inactive)
GI50 [2]: > 100 µM (inactive)
GI50 [3]: > 100 µM (inactive)
GI50 [5]: > 100 µM (inactive)
GI50 [6]: > 100 µM (inactive)
GI50 [7]: > 100 µM (inactive)
GI50 [9]: > 100 µM (inactive)
GI50 [11]: > 100 µM (inactive)
GI50 [12]: > 100 µM (inactive)
GI50 [13]: > 100 µM (inactive)
GI50 [14]: > 100 µM (inactive)
GI50 [15]: > 100 µM (inactive)
GI50 [16]: > 100 µM (inactive)
GI50 [17]: 45.5 µM
GI50 [18]: > 100 µM (inactive)
GI50 [19]: > 100 µM (inactive)
GI50 [20]: > 100 µM (inactive)
GI50 [21]: 63.7 µM (inactive)
GI50 [22]: > 100 µM (inactive)
GI50 [23]: > 100 µM (inactive)
GI50 [24]: > 100 µM (inactive)
GI50 [27]: 95.7 µM (inactive)
GI50 [28]: > 100 µM (inactive)
GI50 [29]: > 100 µM (inactive)
GI50 [30]: > 100 µM (inactive)
GI50 [31]: 45.6 µM (inactive)
GI50 [32]: > 100 µM (inactive)
GI50 [33]: > 100 µM (inactive)
GI50 [34]: > 100 µM (inactive)
GI50 [58]: 64.7 µM (inactive)
GI50 [35]: > 100 µM (inactive)
GI50 [37]: 43.7 µM (inactive)
GI50 [38]: > 100 µM (inactive)
GI50 [39]: > 100 µM (inactive)
GI50 [40]: 39.4 µM (inactive)
GI50 [41]: > 100 µM (inactive)
GI50 [42]: > 100 µM (inactive)
GI50 [45]: > 100 µM (inactive)
GI50 [46]: 72.4 µM (inactive)
GI50 [48]: 21.9 µM (inactive)
GI50 [49]: 93.5 µM (inactive)
GI50 [50]: 70.6 µM (inactive)
GI50 [51]: > 100 µM (inactive)
GI50 [52]: > 100 µM (inactive)
GI50 [53]: > 100 µM (inactive)
GI50 [54]: > 100 µM (inactive)
GI50 [55]: > 100 µM (inactive)
GI50 [56]: > 100 µM (inactive)
GI50 [57]: > 100 µM (inactive)
